The values that follow are results of earlier work, collected in US20090223408A1, “Use of Sub-Micron Copper Salt Particles in Wood Preservation” (PhibroWood, LLC, priority 2004, published 2009).

The conditions of data set [1]: baseline about 4 mg copper per liter.

Where two headings read alike, the source gives them in different places.

As for `[OH][Cu][OH]` [copper hydroxide, copper(II) hydroxide], the Solubility of copper (pH 4) is reported as 640 ppm, the Solubility of copper (pH 7) was 2 ppm and the Solubility of copper entry (pH 10) was “about 0.01 ppm”.
As for copper citrate, the “leachate copper concentration relative to CCA baseline” value in data set [1] is “over fifteen times the baseline concentration”.
